Reference: ChEMBL document CHEMBL3585293, “Design, antiviral and cytostatic properties of isoxazolidine-containing amonafide analogues” (Bioorg Med Chem, 2015)

What follows are molecules tested on Vaccinia virus (assay: Antiviral activity against Vaccinia virus infected in HEL cells assessed as reduction of virus-induced cytopathogenicity). Settings: Orthopoxvirus vaccinia.
Format: functional, organism-based

Structure (SMILES) | EC50 [µM]
CCOP(=O)(OCC)[C@@H]1C[C@H](C(=O)Nc2cc3c4c(cccc4c2)C(=O)N(CCN(C)C)C3=O)ON1C (racemic) | > 45
CCOP(=O)(OCC)[C@@H]1C[C@@H](C(=O)Nc2cc3c4c(cccc4c2)C(=O)N(CCN(C)C)C3=O)ON1C (racemic) | > 45
CCOP(=O)(OCC)[C@@H]1C[C@H](C(=O)Nc2cc3c4c(cccc4c2)C(=O)N(CCN2CCCC2)C3=O)ON1C (racemic) | 50
CCOP(=O)(OCC)[C@@H]1C[C@@H](C(=O)Nc2cc3c4c(cccc4c2)C(=O)N(CCN2CCCC2)C3=O)ON1C (relative stereo) | > 45
Nc1nc2c(ncn2COCCO)c(=O)[nH]1 [ACYCLOVIR] | > 250
O=c1[nH]c(=O)n([C@H]2C[C@H](O)[C@@H](CO)O2)cc1/C=C/Br [BRIVUDINE] | 17
Nc1ccn(C[C@@H](CO)OCP(=O)(O)O)c(=O)n1 [CIDOFOVIR] | 22
Nc1nc2c(ncn2COC(CO)CO)c(=O)[nH]1 [GANCICLOVIR] | > 100
